In patent US20190000889A1, “METHODS FOR TREATING DIABETES” (CITY OF HOPE, priority 2015, published 2019):

Assays:
Type in all cases: in vivo
C57BL/6 mice = test: Alloxan induction of diabetes, blood glucose levels by day 28; conditions: one i.v. dose Alloxan 70 mg/kg, day 28, n=222
Experimental: 8-week-old female mice were I.V. injected with β cell toxin Alloxan (Sigma) at 70 mg/kg body weight. Tail vein blood glucose was measured daily or twice a week with Precision Xtra Glucose Meter (Abbott Diabetes Care Inc.) with a maximum reading of 500 mg/dL Tamoxifen (TM, Sigma) was prepared at 20 mg/mL in corn oil (Sigma). For tracing studies in adult mice, a total of 20 mg of TM was given […] in five doses (each 4 mg) over a 2-week period. Mice rendered diabetic (>300 mg/dL) over a period of 28 days were used in subsequent experiments.
This example investigates whether Sox9^+ pancreatic ductal cells could give rise to insulin-producing β cells in adult diabetic mice after GE treatment, using non-autoimmune Sox9^CreERT2R26^mT/mG C57BL/6 mice. First, a β cell neogenesis mouse model in non-autoimmune diabetic C57BL/6 mice was established. 8 week-old adult female C57BL/6 mice were induced to develop diabetes by one intravenous injection of Alloxan (70 mg/kg body weight) as previously described (14, 27). Mice developed variable levels of hyperglycemia, including mild (<300 mg/dL), medium (300-450 mg/dL) and high hyperglycemia (>450 mg/dL). C57BL/6 mice (n=222) were induced to render diabetic by intravenously injecting one dose of Alloxan (70 mg/kg body weight) at day 0. Blood glucose (BG) concentrations in mice were measured twice a week for 4 weeks.

[1] = test system: Sox9+ pancreatic ductal cells; test: Lineage tracing of Sox9+ ductal cells in Sox9CreERT2 R26mT/mG mice, long-term low-dose GE (islets); conditions: Sox9CreERT2 R26mT/mG C57BL/6 mice, TM 20 mg in five doses over 2 weeks
Experimental: 8 weeks old female Sox9^CreERT2 R26^mT/mG mice were first injected with Tamoxifen™ to label the Sox9/EGFP^+ cells, then the mice were induced to develop diabetes and treated with PBS or GE and monitored as described in FIG. 2A. At the end of experiments, pancreases were stained for Insulin and EGFP, and merged staining was also shown.
(§1) 8-week-old female mice were I.V. injected with β cell toxin Alloxan (Sigma) at 70 mg/kg body weight. Tail vein blood glucose was measured daily or twice a week with Precision Xtra Glucose Meter (Abbott Diabetes Care Inc.) with a maximum reading of 500 mg/dL Tamoxifen (TM, Sigma) was prepared at 20 mg/mL in corn oil (Sigma). […]
Percentage of EGFP^+Sox9^+ cells was determined by the number of EGFP^+Sox9^+ cells divided by the total number of Sox9^+ cells. Cells were counted in ten random fields of view of a tissue section. To quantify the number of lineage-labeled Insulin^+ cells, all Insulin^+ cells and Ins/EGFP^+Ins^+ cells on a section were counted, and then the percentage of Ins/EGFP^+Ins^+ cells amongst total Insulin^+ cells was determined. To quantify the number of lineage-labeled Insulin^+ cells arising from Sox9^+ cells, all Insulin^+ cells and Sox9/EGFP^+Ins^+ cells on a section were counted, and then the percentage of Sox9/EGFP^+Ins^+ cells among total Insulin^+ cells was determined. […] Average count of each mouse was calculated. […]

[2] = test system: pre-existing insulin-producing β cells; test: Lineage tracing of pre-existing β cells in Ins1CreERT R26mT/mG mice, long-term low-dose GE; conditions: non-diabetic Ins1CreERT R26mT/mG mice, TM 20 mg in five doses over 2 weeks
Experimental: 8 weeks old female Ins1^CreERTR26^mT/mG mice were first given I.P. injection of Tamoxifen™ every two days over a 2-week period to induce EGFP expression and label the pre-existing β cells. Thereafter, mice were induced to develop diabetes with Alloxan, and mice with medium or high hyperglycemia were treated with GE or PBS control. At the end of the experiments, the pancreases were harvested and stained for insulin and EGFP, and merged staining was also shown. Nuclei were labeled by DAPI. The percentage of EGFP^+Ins^+ cells amongst total Insulin^+ cells was calculated. Normal non-diabetic mice were used as a control for checking EGFP labeling efficiency.
as §1
Percentage of EGFP^+Sox9^+ cells was determined by the number of EGFP^+Sox9^+ cells divided by the total number of Sox9^+ cells. Cells were counted in ten random fields of view of a tissue section. […] To quantify Sox9/EGFP^+Ins^+ cells among ductal tubes, all Sox9/EGFP^+ ductal cells co-expressing insulin in ducts were counted on a section. […] Average count of each mouse was calculated. […]

Row | Compound | Mouse No. with high hyperglycemia (BG ≥ 450 mg/dL) (C57BL/6 mice) | Mouse No. with medium hyperglycemia (300 ≤ BG < 450 mg/dL) (C57BL/6 mice) | Mouse No. with mild hyperglycemia (BG < 300 mg/dL) (C57BL/6 mice) | Percentage of mice with high hyperglycemia (BG ≥ 450 mg/dL) (C57BL/6 mice) | Percentage of mice with medium hyperglycemia (300 ≤ BG < 450 mg/dL) (C57BL/6 mice) | Percentage of mice with mild hyperglycemia (BG < 300 mg/dL) (C57BL/6 mice) | Pancreatic Sox9-expression ductal epithelial cells labeled with EGFP [1] | Pre-existing β cells in the islets labeled with EGFP [2]
1 | O=C1NC(=O)C(=O)C(=O)N1 [Alloxan] | 83 | 101 | 38 | 38% | 45% | 17% | – | –
2 | CC/C(=C(\c1ccccc1)c1ccc(OCCN(C)C)cc1)c1ccccc1 [TM, Tamoxifen] | – | – | – | – | – | – | over 90% | more than 90%
